Source: ChEMBL document CHEMBL1137829, “In vitro anti-parasitic activity of Cyclosporin A analogs on Trypanosoma cruzi” (Bioorg Med Chem Lett, 2004)

Key:
[1] = Inhibition of Peptidyl-prolyl cis-trans isomerase Trypanosoma cruzi cyclophilin (CL Brener strain, p19)
Trypanosoma cruzi [2] = experiment: Effective concentration required for the lysis of Trypanosoma cruzi trypomastigotes in blood stream after 24 hours of treatment; assay type: functional, organism-based
Trypanosoma cruzi [3] = experiment: Compound was tested for the inhibition of Trypanosoma cruzi epimastigote growth after 72 hours of treatment; assay type: functional, organism-based

Compound | IC50 [1] [µM] | EC50 (Trypanosoma cruzi [2]) [µM] | IC50 (Trypanosoma cruzi [3]; read-out: IC50) [µM] | IC50 (Trypanosoma cruzi [3]) [µM]
CC[C@@H]1NC(=O)[C@H]([C@H](O)C(C)CCCc2ccccc2)N(C)C(=O)[C@H](C(C)C)N(C)C(=O)[C@H](CC(C)C)N(C)C(=O)[C@H](CC(C)C)N(C)C(=O)[C@@H](C)NC(=O)[C@H](C)NC(=O)[C@H](CC(C)C)N(C)C(=O)[C@H](C(C)C)NC(=O)[C@H](CC(C)C)N(C)C(=O)CN(C)C1=O (stereo not given in full) | 0.0133 | 2.66 | 3.41 | –
CCC/C=C(/C)[C@@H](O)[C@H]1C(=O)N[C@@H]([C@@H](C)OCCCO)C(=O)N(C)CC(=O)N(C)[C@@H](CC(C)C)C(=O)N[C@@H](C(C)C)C(=O)N(C)[C@@H](CC(C)C)C(=O)N[C@@H](C)C(=O)N[C@H](C)C(=O)N(C)[C@@H](CC(C)C)C(=O)N(C)[C@@H](CC(C)C)C(=O)N(C)[C@@H](C(C)C)C(=O)N1C | 0.0221 | 36.8 | 18.4 | –
CCC/C=C(/C)[C@@H](O)[C@H]1C(=O)N[C@@H](CC)C(=O)N(C)CC(=O)N(C)[C@@H](CC(C)CO)C(=O)N[C@@H](C(C)C)C(=O)N(C)[C@@H](CC(C)C)C(=O)N[C@@H](C)C(=O)N[C@H](C)C(=O)N(C)[C@@H](CC(C)C)C(=O)N(C)[C@@H](CC(C)C)C(=O)N(C)[C@@H](C(C)C)C(=O)N1C (stereo not given in full) | 0.0193 | 153 | 11.4 | –
CC[C@@H]1NC(=O)[C@H]([C@H](O)/C(C)=C\CCCOC)N(C)C(=O)[C@H](C(C)C)N(C)C(=O)[C@H](CC(C)C)N(C)C(=O)[C@H](CC(C)C)N(C)C(=O)[C@@H](C)NC(=O)[C@H](C)NC(=O)[C@H](CC(C)C)N(C)C(=O)[C@H](C(C)C)NC(=O)[C@H](CC(C)C)N(C)C(=O)CN(C)C1=O | 0.0255 | 76.1 | 33.8 | –
CC[C@@H]1NC(=O)[C@H]([C@H](O)/C(C)=C\CCCN=[N+]=[N-])N(C)C(=O)[C@H](C(C)C)N(C)C(=O)[C@H](CC(C)C)N(C)C(=O)[C@H](CC(C)C)N(C)C(=O)[C@@H](C)NC(=O)[C@H](C)NC(=O)[C@H](CC(C)C)N(C)C(=O)[C@H](C(C)C)NC(=O)[C@H](CC(C)C)N(C)C(=O)CN(C)C1=O | 0.0232 | 7.98 | 10.6 | –
CC[C@@H]1NC(=O)[C@H]([C@H](O)/C(C)=C\CCC(=O)OC(C)C)N(C)C(=O)[C@H](C(C)C)N(C)C(=O)[C@H](CC(C)C)N(C)C(=O)[C@H](CC(C)C)N(C)C(=O)[C@@H](C)NC(=O)[C@H](C)NC(=O)[C@H](CC(C)C)N(C)C(=O)[C@H](C(C)C)NC(=O)[C@H](CC(C)C)N(C)C(=O)CN(C)C1=O | – | 58.6 | 7.64 | –
C/C=C/C[C@@H](C)[C@@H](O)[C@H]1C(=O)N[C@@H](CC)C(=O)N(C)CC(=O)N(C)[C@@H](CC(C)C)C(=O)N[C@@H](C(C)C)C(=O)N(C)[C@@H](CC(C)C)C(=O)N[C@@H](C)C(=O)N[C@H](C)C(=O)N(C)[C@@H](CC(C)C)C(=O)N(C)[C@@H](CC(C)C)C(=O)N(C)[C@@H](C(C)C)C(=O)N1C [CYCLOSPORINE] | – | 7.19 | – | 5.39
C/C=C/CC(C)[C@@H](O)[C@H]1C(=O)N[C@@H](CC)C(=O)N(C)CC(=O)N(C)[C@@H](CC(C)C)C(=O)N[C@@H](C(C)C)C(=O)N(C)[C@@H](CC(C)C)C(=O)N[C@@H](C)C(=O)N[C@H]([C@H](C)O)C(=O)N(C)[C@@H](CC(C)C)C(=O)N(C)[C@@H](CC(C)C)C(=O)N(C)[C@@H](C(C)C)C(=O)N1C (stereo not given in full) | 0.0169 | 13.4 | 6.93 | –
CC[C@@H]1NC(=O)[C@H]([C@H](O)C(C)C/C=C/c2ccccc2)N(C)C(=O)[C@H](C(C)C)N(C)C(=O)[C@H](CC(C)C)N(C)C(=O)[C@H](CC(C)C)N(C)C(=O)[C@@H](C)NC(=O)[C@H](C)NC(=O)[C@H](CC(C)C)N(C)C(=O)[C@H](C(C)C)NC(=O)[C@H](CC(C)C)N(C)C(=O)CN(C)C1=O (stereo not given in full) | 0.0125 | 0.97 | 0.82 | –
